Test results taken from ChEMBL document CHEMBL5506057, “Discovery and Optimization of Potent, Efficacious and Selective Inhibitors Targeting EGFR Exon20 Insertion Mutations” (J Med Chem, 2024).
pIC50: −log10 of the molar value. Active and inactive are the calls of the source. No cut-off for these calls is given here.

Experiments:
MDR1, BCRP = test: Efflux ratio of apparent permeability across basolateral to apical side over apical to basolateral side in MDCKII-MDR1-BCRP cells at 1 uM incubated for 90 mins; assay type: ADME, cell-based, Canis lupus familiaris; settings: dog
[1] = Lipophilicity, logD of compound in octanol and aqueous buffer at pH 7.4 incubated for 2 hrs by shake-flask method based LC-MS/MS analysis; assay type: physicochemical
[2] = Metabolic stability in human liver microsomes assessed as intrinsic clearance at 1 uM incubated for 30 mins in presence of NADPH by LC-MS/MS analysis; assay type: ADME, Microsome; settings: read-out: CLH
[3] = Metabolic stability in rat hepatocytes assessed as intrinsic clearance measured per 10^6 cells at 1 uM incubated for 120 mins by LC-MS/MS analysis; assay type: ADME, cell-based, Hepatocyte; settings: read-out: CLH
[4] = Metabolic stability in CD-1 mouse hepatocytes assessed as intrinsic clearance measured per 10^6 cells at 1 uM incubated for 120 mins by LC-MS/MS analysis; assay type: ADME, cell-based, Hepatocyte; settings: read-out: CLH
[5] = Duration (time) of SCID mouse free plasma concentration cover over EGFR insSVD cell IC50 at 50 mg/kg, po; assay type: ADME, organism-based; settings: in vivo
[6] = Inhibition of EGFR Ex20ins ASV mutant (unknown origin) transfected in human NCI-H2073 cells; assay type: cell-based
[7] = Inhibition of EGFR Ex20ins NPG mutant (unknown origin) transfected in human NCI-H2073 cells; assay type: cell-based
[8] = target: T1, Tyrosine-protein kinase BTK (Homo sapiens, UniProt Q06187); test: Inhibition of BTK (unknown origin) at 0.1 uM relative to control
[9] = target: T2, Receptor tyrosine-protein kinase erbB-4 (Homo sapiens, UniProt Q15303); test: Inhibition of ERBB4 (unknown origin) at 0.1 uM relative to control
[10] = target: TRAF2 and NCK-interacting protein kinase (Homo sapiens) (UniProt Q9UKE5); test: Inhibition of TNIK (unknown origin) at 0.1 uM relative to control
[11] = target: Misshapen-like kinase 1 (Homo sapiens) (UniProt Q8N4C8); test: Inhibition of MINK1 (unknown origin) at 0.1 uM relative to control
[12] = target: Tyrosine-protein kinase Blk (Homo sapiens) (UniProt P51451); test: Inhibition of BLK (unknown origin) at 0.1 uM relative to control
[13] = target: T1, Tyrosine-protein kinase BTK; test: Inhibition of BTK (unknown origin)
[14] = target: T2, Receptor tyrosine-protein kinase erbB-4; test: Inhibition of ERBB4 (unknown origin)
[15] = Antitumor activity against human NCI-H2073 cells harboring EGFR D770_N771insSVD mutant xenografted in female SCID mouse assessed as tumor growth inhibition at 100 mg/kg, po administered once daily for 14 days relative to control; assay type: functional; settings: NCI-H2073, 336 h, time 14 day, read-out: TGI
[16] = Toxicity in female SCID mouse xenografted with human NCI-H2073 cells harboring EGFR D770_N771insSVD mutant assessed as body weight loss at 100 mg/kg, po administered once daily for 14 days; assay type: organism-based; settings: in vivo, 336 h, time 14 day
[17] = Antitumor activity against human NCI-H2073 cells harboring wildtype EGFR xenografted in female SCID mouse assessed as tumor growth inhibition at 100 mg/kg, po administered once daily for 15 days relative to control; assay type: functional; settings: NCI-H2073, 360 h, time 15 day, read-out: TGI
Mus musculus = test: In vivo inhibition of EGFR phosphorylation in female SCID mouse xenografted with NCI-H2073 cells harboring EGFR D770_N771insSVD mutant at 100 mg/kg, po measured after 1 to 6 hrs by immunoblotting analysis; assay type: functional, organism-based; settings: time 1-6 hrs

T1 sequence (Q06187 whole entry): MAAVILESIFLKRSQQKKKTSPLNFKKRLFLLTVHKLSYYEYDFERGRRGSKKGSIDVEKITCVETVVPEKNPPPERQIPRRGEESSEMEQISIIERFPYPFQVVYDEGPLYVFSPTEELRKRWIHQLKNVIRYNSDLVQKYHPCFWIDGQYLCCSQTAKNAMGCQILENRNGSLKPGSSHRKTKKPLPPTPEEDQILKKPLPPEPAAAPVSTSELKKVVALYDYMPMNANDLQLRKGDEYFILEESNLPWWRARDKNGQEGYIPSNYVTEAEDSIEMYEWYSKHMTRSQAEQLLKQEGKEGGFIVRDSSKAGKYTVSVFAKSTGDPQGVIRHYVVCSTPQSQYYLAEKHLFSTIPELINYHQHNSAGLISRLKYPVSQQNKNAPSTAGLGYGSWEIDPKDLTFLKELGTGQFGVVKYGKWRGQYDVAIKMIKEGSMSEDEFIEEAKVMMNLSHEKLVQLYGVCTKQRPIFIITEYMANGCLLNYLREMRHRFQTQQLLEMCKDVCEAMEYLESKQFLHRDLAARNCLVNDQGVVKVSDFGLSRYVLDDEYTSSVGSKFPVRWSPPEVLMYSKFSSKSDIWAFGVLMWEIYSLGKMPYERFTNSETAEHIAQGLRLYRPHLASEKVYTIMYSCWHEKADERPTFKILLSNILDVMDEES
T2 sequence (Q15303 whole entry): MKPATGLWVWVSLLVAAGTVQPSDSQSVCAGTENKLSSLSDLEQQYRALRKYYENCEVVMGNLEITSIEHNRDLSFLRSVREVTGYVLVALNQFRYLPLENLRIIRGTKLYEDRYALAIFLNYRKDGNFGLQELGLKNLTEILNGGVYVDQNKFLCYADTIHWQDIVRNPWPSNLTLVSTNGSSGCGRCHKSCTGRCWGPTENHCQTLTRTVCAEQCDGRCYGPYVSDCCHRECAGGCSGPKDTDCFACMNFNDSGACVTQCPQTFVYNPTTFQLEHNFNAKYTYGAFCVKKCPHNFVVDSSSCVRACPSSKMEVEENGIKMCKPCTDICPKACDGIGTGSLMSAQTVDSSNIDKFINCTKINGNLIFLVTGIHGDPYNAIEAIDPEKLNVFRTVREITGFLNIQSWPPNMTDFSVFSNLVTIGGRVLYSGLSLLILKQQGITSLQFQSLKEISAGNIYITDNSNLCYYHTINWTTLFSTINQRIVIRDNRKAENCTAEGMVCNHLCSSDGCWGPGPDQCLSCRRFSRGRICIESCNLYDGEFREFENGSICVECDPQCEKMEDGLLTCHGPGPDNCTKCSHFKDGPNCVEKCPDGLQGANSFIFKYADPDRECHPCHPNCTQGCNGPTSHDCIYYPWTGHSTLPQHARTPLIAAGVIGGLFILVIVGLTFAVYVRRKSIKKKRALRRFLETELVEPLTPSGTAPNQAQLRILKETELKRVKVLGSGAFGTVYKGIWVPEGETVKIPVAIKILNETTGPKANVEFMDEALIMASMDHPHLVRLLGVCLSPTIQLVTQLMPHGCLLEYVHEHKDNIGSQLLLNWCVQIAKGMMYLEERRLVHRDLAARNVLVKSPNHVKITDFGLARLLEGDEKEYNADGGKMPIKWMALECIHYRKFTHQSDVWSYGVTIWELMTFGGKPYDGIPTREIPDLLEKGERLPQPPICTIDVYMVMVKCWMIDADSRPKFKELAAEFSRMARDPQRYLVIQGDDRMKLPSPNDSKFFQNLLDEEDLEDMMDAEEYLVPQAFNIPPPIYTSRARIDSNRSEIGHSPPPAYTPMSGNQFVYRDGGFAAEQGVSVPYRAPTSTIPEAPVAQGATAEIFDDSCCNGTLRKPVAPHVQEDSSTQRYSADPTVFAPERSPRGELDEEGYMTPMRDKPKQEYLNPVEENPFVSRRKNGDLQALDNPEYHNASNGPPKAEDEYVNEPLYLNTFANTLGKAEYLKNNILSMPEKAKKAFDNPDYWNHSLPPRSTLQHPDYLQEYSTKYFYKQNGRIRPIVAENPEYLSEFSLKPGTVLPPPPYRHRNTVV
Tyrosine-protein kinase Blk (Homo sapiens), sequence (P51451 2-505 limits assumed): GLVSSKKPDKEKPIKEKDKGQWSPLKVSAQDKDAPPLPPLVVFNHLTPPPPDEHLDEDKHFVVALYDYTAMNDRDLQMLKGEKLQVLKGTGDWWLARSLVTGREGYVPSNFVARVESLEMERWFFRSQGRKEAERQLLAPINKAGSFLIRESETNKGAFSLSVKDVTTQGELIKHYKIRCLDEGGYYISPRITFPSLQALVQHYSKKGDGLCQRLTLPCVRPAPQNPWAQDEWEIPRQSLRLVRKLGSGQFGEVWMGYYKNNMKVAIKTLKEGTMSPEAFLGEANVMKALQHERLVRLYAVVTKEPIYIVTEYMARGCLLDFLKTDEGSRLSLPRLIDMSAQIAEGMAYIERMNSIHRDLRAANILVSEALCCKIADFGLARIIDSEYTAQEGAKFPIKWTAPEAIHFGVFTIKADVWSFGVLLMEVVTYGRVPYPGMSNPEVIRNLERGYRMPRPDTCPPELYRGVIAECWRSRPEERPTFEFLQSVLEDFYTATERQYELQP
Misshapen-like kinase 1 (Homo sapiens), sequence (Q8N4C8 whole entry, looked up): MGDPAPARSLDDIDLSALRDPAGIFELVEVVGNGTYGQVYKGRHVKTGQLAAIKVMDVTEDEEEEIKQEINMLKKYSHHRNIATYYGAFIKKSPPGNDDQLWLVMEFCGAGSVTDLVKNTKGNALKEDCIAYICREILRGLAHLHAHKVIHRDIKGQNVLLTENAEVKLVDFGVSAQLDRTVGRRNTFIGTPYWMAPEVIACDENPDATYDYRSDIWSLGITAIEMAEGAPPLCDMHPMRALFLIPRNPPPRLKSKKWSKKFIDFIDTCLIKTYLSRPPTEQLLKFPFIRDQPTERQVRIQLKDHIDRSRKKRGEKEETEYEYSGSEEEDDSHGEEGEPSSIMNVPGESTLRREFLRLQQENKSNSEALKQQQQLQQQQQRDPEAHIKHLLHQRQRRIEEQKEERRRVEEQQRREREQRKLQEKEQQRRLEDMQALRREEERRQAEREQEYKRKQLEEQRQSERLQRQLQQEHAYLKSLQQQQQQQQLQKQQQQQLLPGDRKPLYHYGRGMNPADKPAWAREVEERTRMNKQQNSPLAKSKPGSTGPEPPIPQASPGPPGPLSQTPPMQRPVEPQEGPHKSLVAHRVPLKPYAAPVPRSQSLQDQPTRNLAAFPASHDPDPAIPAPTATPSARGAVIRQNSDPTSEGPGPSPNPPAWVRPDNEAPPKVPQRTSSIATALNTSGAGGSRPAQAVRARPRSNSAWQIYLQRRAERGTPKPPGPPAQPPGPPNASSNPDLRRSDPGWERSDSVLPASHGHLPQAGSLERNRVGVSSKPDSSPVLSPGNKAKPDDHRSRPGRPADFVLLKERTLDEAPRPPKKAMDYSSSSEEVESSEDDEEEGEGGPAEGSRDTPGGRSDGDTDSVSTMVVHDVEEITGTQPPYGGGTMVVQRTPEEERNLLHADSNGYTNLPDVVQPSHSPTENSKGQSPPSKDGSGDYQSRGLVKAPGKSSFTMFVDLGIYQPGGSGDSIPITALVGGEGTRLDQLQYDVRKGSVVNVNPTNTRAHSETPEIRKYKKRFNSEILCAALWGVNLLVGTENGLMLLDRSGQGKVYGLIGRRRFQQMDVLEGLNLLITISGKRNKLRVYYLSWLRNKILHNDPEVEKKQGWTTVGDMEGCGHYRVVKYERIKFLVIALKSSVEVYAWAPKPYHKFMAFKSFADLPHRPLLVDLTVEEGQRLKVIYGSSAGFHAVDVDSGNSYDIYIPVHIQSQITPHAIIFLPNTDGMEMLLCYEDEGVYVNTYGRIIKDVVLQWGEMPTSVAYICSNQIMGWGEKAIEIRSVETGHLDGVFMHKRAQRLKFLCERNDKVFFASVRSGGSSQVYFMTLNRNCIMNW

Structure (SMILES) | efflux ratio at 1.5 h, 1 µM (MDR1, BCRP) | logD at 2 h [1] | microsomal CLint at 1 µM [2] | hepatocyte CLint at 1 µM [3] | hepatocyte CLint at 1 µM [4] | Time [5] | pIC50 [6] | pIC50 [7] | inhibition [8] | inhibition [9] | inhibition [10] | inhibition [11] | inhibition [12] | pIC50 [13] | pIC50 [14] | inhibition in vivo at 100 mg/kg [15] | Activity [16] | inhibition in vivo at 100 mg/kg [17] | inhibition (Mus musculus)
C=CC(=O)Nc1cc(Nc2nccc(-c3cn(C)c4ccccc34)n2)c(OC)cc1N(C)CCN(C)C [OSIMERTINIB] | 3.2 | – | – | – | – | – | – | – | – | – | – | – | – | – | – | – | – | – | –
C=CC(=O)N1CC[C@H](n2cc(-c3ccncc3)c(-c3cccc(/C=C/c4ncc(C5CC5)o4)c3)n2)C1 | – | 4.8 | 214 µL/min/mg | 43 µL/min/1e6 cells | 35 µL/min/1e6 cells | 12 h | 7.17 | 7.26 | 99% | 99% | 57% | 55% | 51% | 8.00 | 8.05 | 62% | < 10% | 13% | Active
